Source: US20240158391A1, “DERIVATIVES OF 4-(IMIDAZO[1,2-A]PYRIDIN-3-YL)-N-(PYRIDIN-3-YL) PYRIMIDIN-2- AMINE FOR TREATING PROLIFERATIVE DISEASES AND CONDITIONS” (AUCENTRA THERAPEUTICS PTY LTD, priority 2019, published 2024)

Columns and labels:
[1] = target: CDK7/CyclinH/Mat1 (Homo sapiens, UniProt P50613); assay: ADP Glo kinase assay, CDK7/CyclinH/Mat1; format: biochemical; details: for remaining activity at 1 µM: compound at 1 μM, read-out: Residual enzymatic activity (%) at 1 μM, CDK7 H; for Ki: Km ATP, read-out: Enzymatic inhibition, Ki, CDK7 H
Protocol: (§1) Test compounds are used in 1:3 serial dilutions for 10 concentrations (from 10-0.0005 μM) in 0.5% DMSO. […] The kinase reactions are run for optimised time period at room temperature and then the reaction is stopped by adding 5 μL of ADP Glo reagent.

[2] = target: CDK1/CyclinB (Homo sapiens, UniProt P06493); assay: ADP Glo kinase assay, CDK1/CyclinB; format: biochemical; details: for remaining activity at 1 µM: compound at 1 μM, read-out: Residual enzymatic activity (%) at 1 μM, CDK1 B; for Ki: Km ATP, read-out: Enzymatic inhibition, Ki, CDK1 B
Protocol: as §1

[3] = target: T1, FLT3-ITD (Homo sapiens, UniProt P36888); assay: ADP Glo kinase assay, FLT3-ITD; format: biochemical; details: for Ki: Km ATP 100 μM, read-out: Enzymatic inhibition, Ki, FLT3-ITD
T1 sequence (P36888 1-993): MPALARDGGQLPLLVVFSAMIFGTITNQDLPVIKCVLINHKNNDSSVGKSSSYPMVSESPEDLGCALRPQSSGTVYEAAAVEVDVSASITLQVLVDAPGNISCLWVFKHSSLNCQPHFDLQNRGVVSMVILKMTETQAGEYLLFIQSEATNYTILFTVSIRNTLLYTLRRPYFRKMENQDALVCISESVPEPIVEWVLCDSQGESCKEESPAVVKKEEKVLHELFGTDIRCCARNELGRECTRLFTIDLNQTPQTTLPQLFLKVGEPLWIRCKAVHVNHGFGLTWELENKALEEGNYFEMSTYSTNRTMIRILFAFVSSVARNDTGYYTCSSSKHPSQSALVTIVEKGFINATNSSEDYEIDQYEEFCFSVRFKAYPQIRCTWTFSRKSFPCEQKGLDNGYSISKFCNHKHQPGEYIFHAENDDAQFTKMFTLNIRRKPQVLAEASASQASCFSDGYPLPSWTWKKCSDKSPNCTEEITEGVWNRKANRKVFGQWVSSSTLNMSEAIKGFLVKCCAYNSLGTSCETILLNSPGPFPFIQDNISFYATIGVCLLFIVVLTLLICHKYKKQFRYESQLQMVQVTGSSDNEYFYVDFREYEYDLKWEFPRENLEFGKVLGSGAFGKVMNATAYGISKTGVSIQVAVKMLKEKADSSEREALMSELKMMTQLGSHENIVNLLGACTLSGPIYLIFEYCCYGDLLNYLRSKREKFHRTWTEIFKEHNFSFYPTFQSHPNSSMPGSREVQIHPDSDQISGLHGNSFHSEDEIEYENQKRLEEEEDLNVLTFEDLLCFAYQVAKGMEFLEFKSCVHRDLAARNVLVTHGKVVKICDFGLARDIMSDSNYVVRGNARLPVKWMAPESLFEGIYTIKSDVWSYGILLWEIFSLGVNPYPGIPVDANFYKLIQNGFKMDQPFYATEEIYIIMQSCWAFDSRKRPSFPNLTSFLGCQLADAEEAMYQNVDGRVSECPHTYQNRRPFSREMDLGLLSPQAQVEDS
Protocol: as §1

[4] = tested on: MV-4-11; assay: Proliferation assay (resazurin, leukemia cell lines), MV-4-11; format: cell-based; details: Homo sapiens, MV4-11, read-out: 72 h Growth inhibition GI50, MV-4-11 cells
From the text: The following compounds were used as comparators.

[5] = target: CDK6/CyclinD3 (Homo sapiens, UniProt Q00534); assay: ADP Glo kinase assay, CDK6/CyclinD3; format: biochemical; details: for remaining activity at 1 µM: compound at 1 μM, read-out: Residual enzymatic activity (%) at 1 μM, CDK6 D3; for Ki: Km ATP, read-out: Enzymatic inhibition, Ki, CDK6 D3
Protocol: as §1

[6] = target: CDK9/CyclinT1 (Homo sapiens, UniProt P50750); assay: ADP Glo kinase assay, CDK9/CyclinT1; format: biochemical; details: for Ki: CDK9/CyclinT1, Km ATP, read-out: Enzymatic inhibition, Ki, CDK9 T1
Protocol: as §1

[7] = target: CDK4/CyclinD1 (Homo sapiens, UniProt P11802); assay: ADP Glo kinase assay, CDK4/CyclinD1; format: biochemical; details: for remaining activity at 1 µM: compound at 1 μM, read-out: Residual enzymatic activity (%) at 1 μM, CDK4 D1; for Ki: Km ATP, read-out: Enzymatic inhibition, Ki, CDK4 D1
Protocol: as §1

[8] = target: CDK2/CyclinA2 (Homo sapiens, UniProt P24941); assay: ADP Glo kinase assay, CDK2/CyclinA2; format: biochemical; details: for remaining activity at 1 µM: compound at 1 μM, read-out: Residual enzymatic activity (%) at 1 μM, CDK2 A; for Ki: Km ATP, read-out: Enzymatic inhibition, Ki, CDK2 A
Protocol: as §1

Sequence of CDK4/CyclinD1 (P11802 whole entry, species assumed): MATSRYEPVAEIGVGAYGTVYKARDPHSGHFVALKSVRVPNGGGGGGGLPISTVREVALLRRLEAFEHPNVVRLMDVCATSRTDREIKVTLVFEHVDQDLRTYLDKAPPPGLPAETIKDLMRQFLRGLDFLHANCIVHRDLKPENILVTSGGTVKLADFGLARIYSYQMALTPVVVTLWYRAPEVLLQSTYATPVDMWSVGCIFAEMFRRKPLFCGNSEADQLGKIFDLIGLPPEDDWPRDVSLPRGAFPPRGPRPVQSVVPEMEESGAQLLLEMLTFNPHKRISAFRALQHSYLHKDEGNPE
Sequence of CDK4/CyclinD1 (P24385 whole entry partner, species assumed): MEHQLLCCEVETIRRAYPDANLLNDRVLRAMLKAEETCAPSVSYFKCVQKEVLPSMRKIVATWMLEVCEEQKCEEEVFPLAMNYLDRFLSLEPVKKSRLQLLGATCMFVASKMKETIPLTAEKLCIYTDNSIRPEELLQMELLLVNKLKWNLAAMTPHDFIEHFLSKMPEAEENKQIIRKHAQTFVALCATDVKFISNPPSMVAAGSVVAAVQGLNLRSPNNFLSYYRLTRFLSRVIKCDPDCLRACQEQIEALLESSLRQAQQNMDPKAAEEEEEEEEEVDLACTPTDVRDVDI
Sequence of CDK1/CyclinB (P06493 whole entry, species assumed): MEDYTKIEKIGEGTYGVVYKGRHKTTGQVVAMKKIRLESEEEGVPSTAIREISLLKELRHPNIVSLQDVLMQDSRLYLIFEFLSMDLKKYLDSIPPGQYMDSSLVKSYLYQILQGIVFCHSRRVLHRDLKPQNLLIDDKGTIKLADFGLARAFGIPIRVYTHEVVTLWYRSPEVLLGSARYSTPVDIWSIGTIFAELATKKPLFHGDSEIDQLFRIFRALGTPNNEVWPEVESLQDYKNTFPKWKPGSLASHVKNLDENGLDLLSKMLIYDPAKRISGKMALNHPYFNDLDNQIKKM
Sequence of CDK1/CyclinB (P14635 whole entry partner, species assumed): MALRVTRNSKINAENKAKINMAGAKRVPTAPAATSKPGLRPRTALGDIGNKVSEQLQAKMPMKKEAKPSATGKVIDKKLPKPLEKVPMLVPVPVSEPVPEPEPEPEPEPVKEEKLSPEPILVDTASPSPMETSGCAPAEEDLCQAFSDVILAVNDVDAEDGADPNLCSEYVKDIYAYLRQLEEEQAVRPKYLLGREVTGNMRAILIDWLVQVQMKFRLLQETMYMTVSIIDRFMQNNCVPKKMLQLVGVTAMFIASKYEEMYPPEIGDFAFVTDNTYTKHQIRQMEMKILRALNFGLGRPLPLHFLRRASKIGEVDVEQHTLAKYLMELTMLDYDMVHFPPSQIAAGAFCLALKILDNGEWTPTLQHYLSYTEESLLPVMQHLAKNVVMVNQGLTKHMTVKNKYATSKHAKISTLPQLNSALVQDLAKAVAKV
Sequence of CDK9/CyclinT1 (P50750 whole entry, species assumed): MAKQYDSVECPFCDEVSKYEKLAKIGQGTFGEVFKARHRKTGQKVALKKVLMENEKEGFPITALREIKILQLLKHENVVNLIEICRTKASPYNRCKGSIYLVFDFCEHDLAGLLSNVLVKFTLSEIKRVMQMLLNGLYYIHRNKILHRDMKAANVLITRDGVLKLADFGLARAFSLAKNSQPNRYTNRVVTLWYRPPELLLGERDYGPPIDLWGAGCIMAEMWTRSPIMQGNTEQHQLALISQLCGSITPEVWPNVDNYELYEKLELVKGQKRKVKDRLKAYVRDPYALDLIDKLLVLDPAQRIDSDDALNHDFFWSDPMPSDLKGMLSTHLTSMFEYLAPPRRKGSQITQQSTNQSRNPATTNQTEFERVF
Sequence of CDK9/CyclinT1 (O60563 whole entry partner, species assumed): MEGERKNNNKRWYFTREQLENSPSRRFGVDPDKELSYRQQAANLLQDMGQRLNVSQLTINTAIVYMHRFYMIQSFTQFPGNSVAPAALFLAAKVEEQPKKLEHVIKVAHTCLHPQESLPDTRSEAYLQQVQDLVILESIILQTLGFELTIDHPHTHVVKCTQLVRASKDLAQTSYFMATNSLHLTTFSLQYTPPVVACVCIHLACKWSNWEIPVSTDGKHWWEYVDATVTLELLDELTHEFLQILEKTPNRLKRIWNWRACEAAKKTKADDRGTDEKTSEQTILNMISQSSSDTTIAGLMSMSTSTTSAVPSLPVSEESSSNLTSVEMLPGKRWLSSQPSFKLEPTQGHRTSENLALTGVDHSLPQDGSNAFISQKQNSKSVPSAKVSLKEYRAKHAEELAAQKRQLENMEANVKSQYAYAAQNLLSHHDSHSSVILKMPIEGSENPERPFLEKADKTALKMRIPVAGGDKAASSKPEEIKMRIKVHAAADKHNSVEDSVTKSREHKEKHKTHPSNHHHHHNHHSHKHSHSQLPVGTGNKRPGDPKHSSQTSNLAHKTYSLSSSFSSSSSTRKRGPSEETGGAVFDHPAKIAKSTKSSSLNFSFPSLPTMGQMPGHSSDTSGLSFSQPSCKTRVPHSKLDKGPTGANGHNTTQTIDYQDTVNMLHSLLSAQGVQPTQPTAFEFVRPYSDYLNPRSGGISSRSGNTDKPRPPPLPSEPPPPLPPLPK
Sequence of CDK7/CyclinH/Mat1 (P50613 whole entry, species assumed): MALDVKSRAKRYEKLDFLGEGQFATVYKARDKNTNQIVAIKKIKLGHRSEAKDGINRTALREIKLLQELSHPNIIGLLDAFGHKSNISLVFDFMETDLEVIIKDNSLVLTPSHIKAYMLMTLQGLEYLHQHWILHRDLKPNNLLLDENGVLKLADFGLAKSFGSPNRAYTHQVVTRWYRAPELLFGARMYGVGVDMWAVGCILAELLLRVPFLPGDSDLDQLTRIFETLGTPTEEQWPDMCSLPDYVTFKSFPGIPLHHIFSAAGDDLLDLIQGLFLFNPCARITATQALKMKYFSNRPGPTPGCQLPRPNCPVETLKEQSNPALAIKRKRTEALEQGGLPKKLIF
Sequence of CDK7/CyclinH/Mat1 (P51946 whole entry partner, species assumed): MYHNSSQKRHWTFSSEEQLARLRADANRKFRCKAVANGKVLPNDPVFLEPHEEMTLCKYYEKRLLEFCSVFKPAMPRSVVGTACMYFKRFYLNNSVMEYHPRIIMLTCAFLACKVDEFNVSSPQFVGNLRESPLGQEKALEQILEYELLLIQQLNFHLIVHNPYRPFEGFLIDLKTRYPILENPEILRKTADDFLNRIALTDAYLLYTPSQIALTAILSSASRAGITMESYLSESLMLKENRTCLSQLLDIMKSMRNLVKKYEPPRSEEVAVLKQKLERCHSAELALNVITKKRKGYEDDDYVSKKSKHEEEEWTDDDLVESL
Sequence of CDK7/CyclinH/Mat1 (P51948 whole entry partner, species assumed): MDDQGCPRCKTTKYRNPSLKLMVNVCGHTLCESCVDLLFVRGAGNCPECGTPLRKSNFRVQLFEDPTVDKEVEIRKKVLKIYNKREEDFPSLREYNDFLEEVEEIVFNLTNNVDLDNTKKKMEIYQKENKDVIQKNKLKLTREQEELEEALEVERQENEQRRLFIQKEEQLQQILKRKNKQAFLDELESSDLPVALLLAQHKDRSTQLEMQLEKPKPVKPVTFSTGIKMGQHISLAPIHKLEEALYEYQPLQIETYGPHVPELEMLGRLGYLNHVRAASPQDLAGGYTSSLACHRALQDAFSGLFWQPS
Sequence of CDK6/CyclinD3 (Q00534 whole entry, species assumed): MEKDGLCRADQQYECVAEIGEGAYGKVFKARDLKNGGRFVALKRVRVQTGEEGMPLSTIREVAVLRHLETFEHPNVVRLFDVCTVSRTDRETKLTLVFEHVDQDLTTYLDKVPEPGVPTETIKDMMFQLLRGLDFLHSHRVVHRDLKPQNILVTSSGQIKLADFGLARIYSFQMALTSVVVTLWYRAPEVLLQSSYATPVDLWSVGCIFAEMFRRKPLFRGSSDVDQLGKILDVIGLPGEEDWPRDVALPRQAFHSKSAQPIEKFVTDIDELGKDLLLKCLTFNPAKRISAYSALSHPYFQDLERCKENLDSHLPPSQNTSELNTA
Sequence of CDK6/CyclinD3 (P30281 whole entry partner, species assumed): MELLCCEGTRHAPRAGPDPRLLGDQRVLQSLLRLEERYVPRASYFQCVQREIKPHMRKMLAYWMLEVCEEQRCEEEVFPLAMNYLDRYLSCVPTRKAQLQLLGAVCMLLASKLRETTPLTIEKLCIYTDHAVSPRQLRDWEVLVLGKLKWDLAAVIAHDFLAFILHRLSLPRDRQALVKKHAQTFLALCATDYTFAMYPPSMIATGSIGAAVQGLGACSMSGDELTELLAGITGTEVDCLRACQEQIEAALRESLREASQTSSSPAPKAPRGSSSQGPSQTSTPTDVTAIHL

| Structure (SMILES) | remaining activity at 1 µM [1] [%] | remaining activity at 1 µM [2] [%] | Ki [3] [µM] | GI50 [4] [µM] | remaining activity at 1 µM [5] [%] | Ki [6] [µM] | remaining activity at 1 µM [7] [%] | remaining activity at 1 µM [8] [%] | Ki [1] [µM] | Ki [2] [µM] | Ki [5] [µM] | Ki [7] [µM] | Ki [8] [µM] | Residual enzymatic activity (%) at 1 μM, FLT3-ITD ([3]; compound at 1 μM) [%] | inhibition of CDK9 (in words) ([6]; compared with comparator compounds A, B and C (N-(pyridin-2-yl)pyrimidin-2-amine moiety)) |
| --- | --- | --- | --- | --- | --- | --- | --- | --- | --- | --- | --- | --- | --- | --- | --- |
| CS(=O)(=O)N1CCN(c2ccc(Nc3nccc(-c4cnc5ccc(-c6cncnc6)cn45)n3)cn2)CC1 [Compound 20, N-(6-(4-(Methylsulfonyl)piperazin-1-yl)pyridin-3-yl)-4-(6-(pyrimidin-5-yl)imidazo[1,2-a]pyridin-3-yl)pyrimidin-2-amine] |  |  | 1.45 | 0.094 |  | 0.056 | 86 | 41 | 0.89 | > 5 | > 5 |  |  |  |  |
| CC(=O)N1CCN(c2ccc(Nc3ncc(F)c(-c4cnc5ccccn45)n3)cn2)CC1 [Compound 10, 1-(4-(5-((5-Fluoro-4-(imidazo[1,2-a]pyridin-3-yl)pyrimidin-2-yl)amino)pyridin-2-yl)piperazin-1-yl)ethan-1-one] |  |  | 0.018 | 0.006 |  | 0.05 |  |  | 0.895 | 0.061 | 0.451 | > 0.5 | 0.002 |  |  |
| CS(=O)(=O)N1CCN(c2ccc(Nc3nccc(-c4cnc5ccc(-c6ccncc6)cn45)n3)cn2)CC1 [Compound 18, N-(6-(4-(Methylsulfonyl)piperazin-1-yl)pyridin-3-yl)-4-(6-(pyridin-4-yl)imidazo[1,2-a]pyridin-3-yl)pyrimidin-2-amine] | 28 |  | 0.027 | 0.001 |  | 0.021 | 47 |  |  | 0.45 | > 5 |  | 0.557 |  |  |
| Cc1cnc(Nc2ccc(N3CCN(C)CC3)nc2)nc1-c1cnc2ccccn12 [Compound 3, 4-(Imidazo[1,2-a]pyridin-3-yl)-5-methyl-N-(6-(4-methylpiperazin-1-yl)pyridin-3-yl) pyrimidin-2-amine] |  |  | 0.009 | 0.032 |  | 0.136 |  |  | 2.9 | 0.505 | 0.522 | 0.046 | 0.083 |  |  |
| CN1CCN(c2ccc(Nc3nccc(-c4cnc5ccc(-c6ccccc6)cn45)n3)cn2)CC1 [Compound 6, N-(6-(4-Methylpiperazin-1-yl)pyridin-3-yl)-4-(6-phenylimidazo[1,2-a]pyridin-3-yl)pyrimidin-2-amine] |  |  | 0.004 | 0.004 |  | < 0.0001 |  |  | 0.238 | 0.265 | > 5 | 0.229 | 0.177 |  | dramatically and surprisingly increased the potency of inhibition of CDK9 |
| CN1CCN(c2ccc(Nc3nccc(-c4cnc5ccccn45)n3)cn2)CC1 [Compound 1, 4-(Imidazo[1,2-a]pyridin-3-yl)-N-(6-(4-methylpiperazin-1-yl)pyridin-3-yl)pyrimidin-2-amine] |  |  | 0.002 | 0.001 |  | 0.002 |  |  | 1.09 | 0.141 | 0.043 | 0.008 | 0.059 |  |  |

Second part, led by results:

| remaining activity at 1 µM [1] [%] | remaining activity at 1 µM [2] [%] | Ki [3] [µM] | GI50 [4] [µM] | remaining activity at 1 µM [5] [%] | Ki [6] [µM] | remaining activity at 1 µM [7] [%] | remaining activity at 1 µM [8] [%] | Ki [1] [µM] | Ki [2] [µM] | Ki [5] [µM] | Ki [7] [µM] | Ki [8] [µM] | Residual enzymatic activity (%) at 1 μM, FLT3-ITD ([3]; compound at 1 μM) [%] | Structure (SMILES) | inhibition of CDK9 (in words) ([6]; compared with comparator compounds A, B and C (N-(pyridin-2-yl)pyrimidin-2-amine moiety)) |
| --- | --- | --- | --- | --- | --- | --- | --- | --- | --- | --- | --- | --- | --- | --- | --- |
| 88 | 70 | 0.086 | 0.032 | 49 | 0.234 | 52 | 44 |  |  |  |  |  |  | CCS(=O)(=O)N1CCN(c2ccc(Nc3nccc(-c4cnc5ccc(Br)cn45)n3)cn2)CC1 [Compound 59, 4-(6-Bromoimidazo[1,2-a]pyridin-3-yl)-N-(6-(4-(ethylsulfonyl)piperazin-1-yl)pyridin-3-yl)pyrimidin-2-amine] |  |
| 79 | 60 | 0.444 | 0.012 | 60 | 0.054 | 91 | 63 |  |  |  |  |  |  | CC(=O)N1CCN(c2ccc(Nc3nccc(-c4cnc5ccc(-c6ccccc6)cn45)n3)cn2)CC1 [Compound 45, 1-(4-(5-((4-(6-Phenylimidazo[1,2-a]pyridin-3-yl)pyrimidin-2-yl)amino)pyridin-2-yl)piperazin-1-yl)ethan-1-one] |  |
| 100 | 97 |  | 0.6 | 41 | > 1 | 95 | 55 |  |  |  |  |  | 70 | CCOc1ccc(Nc2ncc(F)c(-c3cnc4ccc(-c5ccccc5)cn34)n2)cn1 [Compound 31, N-(6-Ethoxypyridin-3-yl)-5-fluoro-4-(6-phenylimidazo[1,2-a]pyridin-3-yl)pyrimidin-2-amine] |  |
| 27 |  | 0.009 | 0.022 |  | 0.029 | 24 |  |  | 0.078 | > 0.5 |  | 0.031 |  | Brc1ccc2ncc(-c3ccnc(Nc4ccc(N5CCNCC5)nc4)n3)n2c1 [Compound 42, 4-(6-Bromoimidazo[1,2-a]pyridin-3-yl)-N-(6-(piperazin-1-yl)pyridin-3-yl)pyrimidin-2-amine] |  |
|  | 84 | 0.07 | 0.098 | 22 | 0.143 | 47 |  | 0.205 |  |  |  | 0.041 |  | CN(C)C1CCN(Cc2ccc(Nc3nccc(-c4cnc5ccc(Br)cn45)n3)cn2)CC1 [Compound 81, 4-(6-Bromoimidazo[1,2-a]pyridin-3-yl)-N-(6-((4-(dimethylamino)piperidin-1-yl)methyl)pyridin-3-yl)pyrimidin-2-amine] |  |
| 31 |  | 0.01 | 0.018 | 34 | 0.034 |  |  |  | 0.198 |  | 0.53 | 0.131 |  | CN1CCN(c2ccc(Nc3nccc(-c4cnc5ccc(C(F)(F)F)cn45)n3)cn2)CC1 [Compound 36, N-(6-(4-Methylpiperazin-1-yl)pyridin-3-yl)-4-(6-(trifluoromethyl)imidazo[1,2-a]pyridin-3-yl)pyrimidin-2-amine] |  |
|  | 52 | 0.148 | 0.056 | 23 | 0.075 | 65 |  | 0.223 |  |  |  | 0.52 |  | Fc1cnc(Nc2ccc(N3CCN(CCN4CCOCC4)CC3)nc2)nc1-c1cnc2ccc(-c3ccccc3)cn12 [Compound 30, 5-Fluoro-N-(6-(4-(2-morpholinoethyl)piperazin-1-yl)pyridin-3-yl)-4-(6-phenylimidazo[1,2-a]pyridin-3-yl)pyrimidin-2-amine] |  |
| 80 | 89 | 0.16 | 0.078 | 93 | 0.368 | 89 | 100 |  |  |  |  |  |  | CCCNc1ccc(Nc2nccc(-c3cnc4ccc(-c5ccccc5)cn34)n2)cn1 [Compound 75, N^5-(4-(6-Phenylimidazo[1,2-a]pyridin-3-yl)pyrimidin-2-yl)-N^2-propylpyridine-2,5-diamine] |  |
